Test results taken from ChEMBL document CHEMBL5724796, “Tm Shift (DSF) assay results for EUbOPEN Chemogenomics Library” (2024).

Assays:
[1] = molecular target: Fibroblast growth factor receptor 2 (Homo sapiens) (UniProt P21802); settings: Compound concentration 20.0 uM
Description: Thermal Shift Assay. Domain: start/stop: T457-E768

Peregrin (Homo sapiens) = molecular target: T1, Peregrin (Homo sapiens) (UniProt P55201); settings: Compound concentration 20.0 uM
T1 sequence (whole entry): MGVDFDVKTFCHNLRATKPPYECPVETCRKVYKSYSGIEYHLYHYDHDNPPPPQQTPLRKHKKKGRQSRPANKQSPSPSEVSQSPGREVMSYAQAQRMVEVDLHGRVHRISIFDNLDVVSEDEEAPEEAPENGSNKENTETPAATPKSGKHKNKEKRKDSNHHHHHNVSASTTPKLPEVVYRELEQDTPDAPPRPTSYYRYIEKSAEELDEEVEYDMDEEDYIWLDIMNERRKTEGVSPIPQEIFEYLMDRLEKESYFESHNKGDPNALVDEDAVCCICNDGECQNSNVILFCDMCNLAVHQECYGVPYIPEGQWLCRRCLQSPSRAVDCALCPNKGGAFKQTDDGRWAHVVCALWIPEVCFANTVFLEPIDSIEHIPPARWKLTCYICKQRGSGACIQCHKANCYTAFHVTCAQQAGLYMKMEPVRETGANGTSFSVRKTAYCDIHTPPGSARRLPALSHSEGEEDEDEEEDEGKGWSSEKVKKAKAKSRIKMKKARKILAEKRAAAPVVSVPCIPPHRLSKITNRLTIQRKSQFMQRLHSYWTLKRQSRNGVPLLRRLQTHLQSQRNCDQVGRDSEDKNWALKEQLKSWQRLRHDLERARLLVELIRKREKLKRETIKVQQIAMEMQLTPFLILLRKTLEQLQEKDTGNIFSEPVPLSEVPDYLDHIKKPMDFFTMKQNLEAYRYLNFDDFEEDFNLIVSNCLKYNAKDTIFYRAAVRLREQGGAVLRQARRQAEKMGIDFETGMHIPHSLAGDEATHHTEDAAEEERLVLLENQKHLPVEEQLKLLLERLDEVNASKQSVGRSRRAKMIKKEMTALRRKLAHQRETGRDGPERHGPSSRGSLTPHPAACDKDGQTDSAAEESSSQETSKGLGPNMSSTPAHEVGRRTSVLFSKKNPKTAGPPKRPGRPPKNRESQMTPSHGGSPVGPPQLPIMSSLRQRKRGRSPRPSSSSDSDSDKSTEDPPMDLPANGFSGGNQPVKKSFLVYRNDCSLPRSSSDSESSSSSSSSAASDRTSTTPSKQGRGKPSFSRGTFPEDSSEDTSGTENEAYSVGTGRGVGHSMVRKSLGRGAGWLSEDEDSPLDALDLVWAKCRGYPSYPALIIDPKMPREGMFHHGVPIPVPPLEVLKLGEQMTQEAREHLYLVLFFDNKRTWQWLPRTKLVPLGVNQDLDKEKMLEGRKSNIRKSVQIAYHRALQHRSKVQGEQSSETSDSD

Fibroblast growth factor receptor 2 (Homo sapiens), sequence (P21802 22-821 limits assumed): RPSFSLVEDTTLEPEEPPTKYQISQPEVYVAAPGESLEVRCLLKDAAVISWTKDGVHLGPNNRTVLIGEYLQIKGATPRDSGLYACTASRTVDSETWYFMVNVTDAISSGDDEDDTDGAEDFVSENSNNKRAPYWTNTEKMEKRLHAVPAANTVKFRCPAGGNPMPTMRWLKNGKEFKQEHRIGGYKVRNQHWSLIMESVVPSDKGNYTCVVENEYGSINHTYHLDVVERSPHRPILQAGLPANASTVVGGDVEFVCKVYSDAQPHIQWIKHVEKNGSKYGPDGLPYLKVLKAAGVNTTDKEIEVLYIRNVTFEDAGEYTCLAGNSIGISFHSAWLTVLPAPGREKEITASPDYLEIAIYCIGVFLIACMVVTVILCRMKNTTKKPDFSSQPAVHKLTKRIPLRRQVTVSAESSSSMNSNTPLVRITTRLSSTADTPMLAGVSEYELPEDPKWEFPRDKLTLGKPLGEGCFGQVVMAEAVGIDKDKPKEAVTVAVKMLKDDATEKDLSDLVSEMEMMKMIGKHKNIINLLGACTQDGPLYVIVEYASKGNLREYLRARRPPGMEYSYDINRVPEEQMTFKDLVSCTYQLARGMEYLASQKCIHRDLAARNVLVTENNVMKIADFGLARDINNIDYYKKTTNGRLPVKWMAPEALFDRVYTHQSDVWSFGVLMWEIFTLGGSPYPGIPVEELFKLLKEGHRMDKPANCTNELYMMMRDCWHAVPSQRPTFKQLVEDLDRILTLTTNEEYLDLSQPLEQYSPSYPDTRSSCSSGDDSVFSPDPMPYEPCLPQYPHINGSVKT

Compound: C[C@@H](Oc1ccc(S(C)(=O)=O)cc1C(=O)N1C[C@@H]2C[C@]2(c2cc(C(F)(F)F)on2)C1)C(F)(F)F
- ΔTm [1]: -0.81 °C
- ΔTm (Peregrin (Homo sapiens)): 0.16 °C

Compound: CC1(C)Cn2nc(-c3ccc(F)cn3)c(-c3ccnc4[nH]ncc34)c2CO1
- ΔTm ([1]; tested as the 2H-labelled form): 0.38 °C
- ΔTm (Peregrin (Homo sapiens); tested as the 2H-labelled form): -1.29 °C

Compound: CCOC(=O)Oc1c(OC)cc(C(=O)O[C@H]2C[C@H]3CN4CCc5c([nH]c6cc(OC)ccc56)[C@@H]4C[C@H]3[C@@H](C(=O)OC)[C@@H]2OC)cc1OC
- ΔTm [1]: -1.05 °C
- ΔTm (Peregrin (Homo sapiens)): 2.92 °C

Compound: CCCN1CCN(c2ccc(C(=O)NC3(C(=O)NCC#N)CCCCC3)cc2)CC1
- ΔTm [1]: 0.76 °C
- ΔTm (Peregrin (Homo sapiens)): -1.09 °C

Compound: CCn1nc(C2CC2)cc1Nc1nc(C(=O)NC)nc2[nH]c3cc(-c4c(C)noc4C)c(OC)cc3c12
- ΔTm [1]: -0.1 °C
- ΔTm (Peregrin (Homo sapiens)): 0.68 °C

Compound: COc1ccc(-c2ccc(-c3cn(C(=O)N4CCCCC4c4ccccc4)nn3)cc2)cc1 (stereo not given)
- ΔTm [1]: 0.03 °C
- ΔTm (Peregrin (Homo sapiens)): -1.62 °C

Compound: CC(C)(C)c1ccc(S(=O)(=O)NCc2ccc(C(=O)Nc3cccnc3)cc2)cc1
- ΔTm [1]: -0.54 °C
- ΔTm (Peregrin (Homo sapiens)): -0.61 °C

Compound: COc1cccc(-c2nccc3c2CN(c2ccccc2)C3=O)c1
- ΔTm [1]: 0.77 °C
- ΔTm (Peregrin (Homo sapiens)): -0.63 °C

Compound: COc1cc2c(NC3CCN(C)CC3)cc(-c3ccc(C)o3)nc2cc1OCCCN1CCCC1
- ΔTm [1]: 0.85 °C
- ΔTm (Peregrin (Homo sapiens)): -0.96 °C

Compound: CCn1ncc2c(NC3CCOCC3)c(-c3nnc(Cc4sc(C)nc4C)o3)cnc21
- ΔTm [1]: 0.47 °C
- ΔTm (Peregrin (Homo sapiens)): 0.65 °C

Compound: O=C(C[C@@H](C(F)F)n1ccc(F)n1)N1CCC(O)(Cn2cnc3c(cnn3-c3ccc(F)cc3)c2=O)CC1
- ΔTm [1]: 0.2 °C
- ΔTm (Peregrin (Homo sapiens)): 0.9 °C

Compound: Cc1cc(-n2cccc2)c(S(C)(=O)=O)cc1C(=O)N=C(N)N
- ΔTm [1]: -0.71 °C
- ΔTm (Peregrin (Homo sapiens)): 2.16 °C

Compound: Cc1nc(Nc2ncc(C(=O)Nc3c(C)cccc3Cl)s2)cc(N2CCN(CCO)CC2)n1
- ΔTm [1]: 4.7 °C
- ΔTm (Peregrin (Homo sapiens)): -0.2 °C

Compound: CC(=O)N1CCC(Nc2cc(C(=O)NC[C@H](O)CN3CCc4ccccc4C3)ncn2)CC1
- ΔTm [1]: 0.28 °C
- ΔTm (Peregrin (Homo sapiens)): -1.13 °C

Compound: Cc1nc(-c2cnn(C)c2-c2ccc(C(F)(F)F)cn2)c2c(N3CCC3)ncnn12
- ΔTm [1]: 0.06 °C
- ΔTm (Peregrin (Homo sapiens)): 0.67 °C

Compound: O=C(Nc1c[nH]nc1C(=O)NC1CCNCC1)c1cc(F)cc(F)c1
- ΔTm [1]: 0.46 °C
- ΔTm (Peregrin (Homo sapiens)): -3.15 °C

Compound: CN1CC[C@@H](Oc2ccc(F)c(-c3nc4c(o3)C(=O)c3ccccc3C4=O)c2Cl)C1
- ΔTm [1]: -0.38 °C
- ΔTm (Peregrin (Homo sapiens)): 0.26 °C

Compound: O=C(NO)c1cccc(C(=O)NCCc2ccccc2)c1
- ΔTm [1]: 0.41 °C
- ΔTm (Peregrin (Homo sapiens)): -0.84 °C

Compound: N[C@H](C(=O)O)[C@H](OCc1cccc(NC(=O)c2ccc(C(F)(F)F)cc2)c1)C(=O)O
- ΔTm [1]: -0.22 °C
- ΔTm (Peregrin (Homo sapiens)): 0.9 °C

Compound: Cc1ccc(C(=O)Nc2ccc(S(=O)(=O)O)c3cc(S(=O)(=O)O)cc(S(=O)(=O)O)c23)cc1NC(=O)c1cccc(NC(=O)Nc2cccc(C(=O)Nc3cc(C(=O)Nc4ccc(S(=O)(=O)O)c5cc(S(=O)(=O)O)cc(S(=O)(=O)O)c45)ccc3C)c2)c1
- ΔTm [1]: -1.68 °C
- ΔTm (Peregrin (Homo sapiens)): -1.58 °C

Compound: Cn1c(=O)cc(N2CCC[C@@H](N)C2)n(Cc2ccccc2C#N)c1=O
- ΔTm [1]: 0.81 °C
- ΔTm (Peregrin (Homo sapiens)): 2.35 °C

Compound: CCCc1nc(C)c2c(C)nc3ccc(OC)nc3n12
- ΔTm [1]: -0.53 °C
- ΔTm (Peregrin (Homo sapiens)): -0.07 °C

Compound: CCCCCCCCCCCCC/C=C/[C@@H](O)[C@H](CO)NC(=O)CCl
- ΔTm [1]: 0.03 °C
- ΔTm (Peregrin (Homo sapiens)): 0.52 °C

Compound: CCc1oc2ccccc2c1C(=O)c1cc(Br)c(O)c(Br)c1
- ΔTm [1]: -1.86 °C
- ΔTm (Peregrin (Homo sapiens)): -11 °C

Compound: CCCCCn1c(C)c(C(=O)c2cccc3ccccc23)c2ccccc21
- ΔTm [1]: 0.39 °C
- ΔTm (Peregrin (Homo sapiens)): 2.08 °C

Compound: CN(C)CC(c1ccc(O)cc1)C1(O)CCCCC1 (stereo not given)
- ΔTm [1]: -0.09 °C
- ΔTm (Peregrin (Homo sapiens)): -1.07 °C

Compound: Cc1cc(C)c(CNC(=O)c2cc(-c3ccc(N4CCN(C)CC4)nc3)cc3c2c(C)cn3C(C)C)c(=O)[nH]1
- ΔTm [1]: 0.85 °C
- ΔTm (Peregrin (Homo sapiens)): -1.27 °C

Compound: CCNC(=O)/C=C/c1cccc(Br)c1
- ΔTm [1]: -0.4 °C
- ΔTm (Peregrin (Homo sapiens)): -1.37 °C

Compound: CN1CCN(c2ccc3nc(-c4c(N)c5c(F)cccc5[nH]c4=O)[nH]c3c2)CC1
- ΔTm (Peregrin (Homo sapiens)): -0.73 °C

Compound: COc1ccccc1C(=O)Nc1cc2c(cc1N1CCCCC1)n(C)c(=O)n2C
- ΔTm [1]: 0.52 °C

Compound: COc1ccccc1C(=O)Nc1cc2c(cc1N1CCNC[C@H]1C)n(C)c(=O)n2C
- ΔTm [1]: 0.68 °C

Compound: COc1cc(Nc2ncc(F)c(Nc3ccc4c(n3)NC(=O)C(C)(C)O4)n2)cc(OC)c1OC
- ΔTm (Peregrin (Homo sapiens)): -0.89 °C
